Test results as given in patent US20240374587A1, “MEDICINE FOR PREVENTION AND TREATMENT OF DISEASES LINKED TO ANTI-OBESITY ACTIVITY” (Shionogi & Co., Ltd., priority 2021, published 2024).

What was measured:
human MGAT2 = human MGAT2 (Homo sapiens (Human), UniProt Q3SYC2); assay: Measurement of human MGAT2 inhibitory activity; assay type: biochemical; conditions: concentration exhibiting 50% enzyme inhibition
Protocol: Solutions of the compounds of the present invention in DMSO were each aliquoted into 0.2·μL portions in a 384-well polystyrene microplate produced by Corning Incorporated, and 5 μL of an enzyme solution prepared with an assay buffer (100 mmol/L phosphate buffer (pH 7.4) containing 2 mmol/L DTT) and 5 μL of a substrate solution (100 mmol/L phosphate buffer (pH 7.4), 30 μmol/L 2-Oleoylglycerol, 10 μmol/L Oleoyl-CoA) were added thereto, and the resultant was stirred and centrifuged, and incubated in a moist chamber at room temperature for 1 hour. After enzymatic reaction, 50 μL of a quenching solution (containing 0.2 μmol/L Diolein-d5, 0.4% formic acid, and 50% isopropanol) containing Internal Standard (IS) was added to terminate the reaction, and the resultant was sealed in a plate produced by Shimadzu GLC Ltd., and then stirred and centrifuged, and measurement was performed by using an electrospray ionization method with a RapidFire360 and Agilent 6550 Q-TOF mass spectrometer. Diolein as a reaction product (P) of 2-Oleoylglycerol as the substrate and an ammonium adduct ion of the IS were detected, and the peak intensity ratio, P/IS, was calculated from the peak heights to evaluate the inhibitory activity. Inhibitory activities with/without addition of enzyme were defined as Control (+)/Control (−), respectively, and the respective % inhibitions were defined as 0% inhibition and 100% inhibition. The inhibitory activity was calculated from the formula below with TIBCO Spotfire (produced by TIBCO Software Inc.) with the peak intensity ratio, P/IS, at the time of addition of the compound of the present invention being as Sample: […]

C57BL/6j mice (DIO mice) = assay: Anti-obesity effect test in DIO mice (body weight, food consumption); assay type: in vivo; parameters: concentration or dose not given beside the values; conditions: for Rate of decrease in body weight relative to control group: at final administration (Day 0 to Day 35, once a day)
Protocol: The anti-obesity effect of the compound and/or agent according to the present invention was examined by using C57BL/6j mice (DIO mice) provided with a high-fat diet (TestDiet; 58Y1).
Five-week-old male C57BL/6j mice (CLEA Japan. Inc.) were purchased, and grown with feeding of a high-fat diet under 12-hour light-dark cycles for 4 weeks to produce DIO mice. A medium (0.5% HPMC and physiological saline) was administered once a day from 3 weeks before administration of the compound. Randomization was performed for grouping (n=9 to 10) on the basis of body weight and change in food consumption during the period of administration for conditioning. From Day 0 to Day 35, gavage of vehicle (0.5% HPMC and physiological saline) (hereinafter, Control group), gavage of Compound (A) according to the present invention (hereinafter, (A)-administration group), subcutaneous administration of GLP-1 formulation (liraglutide or semaglutide) as Compound (B) according to the present invention (hereinafter, (B)-administration group), or both (hereinafter, the combined administration group) were performed once a day. The GLP-1 formulation was formulated in an increasing dose, and liraglutide and semaglutide were administered at 4 to 20 μg/kg and:3 to 15 μg/kg, respectively, once a day. During the administration period, daily body weight measurement and food consumption measurement once a week were performed.

human MGAT2, sequence (Q3SYC2 whole entry): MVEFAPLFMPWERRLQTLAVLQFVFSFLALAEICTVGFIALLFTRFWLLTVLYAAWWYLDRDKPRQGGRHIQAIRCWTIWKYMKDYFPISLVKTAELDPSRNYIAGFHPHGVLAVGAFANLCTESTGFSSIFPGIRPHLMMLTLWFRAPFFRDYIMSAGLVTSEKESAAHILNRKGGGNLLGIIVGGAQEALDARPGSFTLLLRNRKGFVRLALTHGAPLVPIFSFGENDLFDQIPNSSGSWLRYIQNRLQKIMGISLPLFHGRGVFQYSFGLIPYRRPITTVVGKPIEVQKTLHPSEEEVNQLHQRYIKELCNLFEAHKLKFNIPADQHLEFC

Compound	IC50 (human MGAT2) [nM]	also measured
CS(=O)(=O)CC(=O)Nc1c(-c2ccc(F)cc2)nn2c1C(=O)N[C@@]1(CCOc3cc(OCC(F)(F)F)ccc31)C2 [I′-066]	0.85	–
CS(=O)(=O)CC(=O)Nc1c(CCC(F)(F)F)nn2c1C(=O)N[C@@]1(CCc3cc(OCC(F)(F)F)ccc31)C2 [I′-058]	9.78	–
CS(=O)(=O)CC(=O)Nc1c(-c2ccc(F)c(F)c2)nn2c1C(=O)N[C@@]1(CCc3cc(OCC(F)(F)F)ccc31)C2 [I′-033]	0.73	–
Cc1ccc(-n2nc3c(c2NC(=O)CS(C)(=O)=O)C(=O)N[C@@]2(CCOc4cc(F)cc(F)c42)C3)nc1 [II-203]	2.98	–
Cc1ccc(-c2nn3c(c2NC(=O)CS(C)(=O)=O)C(=O)N[C@@]2(CCc4cc(F)cc(F)c42)C3)nc1 [I′-139]	15.8	–
CS(=O)(=O)CC(=O)Nc1c(-c2ccc(Cl)cn2)nn2c1C(=O)N[C@@]1(CCc3cc(F)cc(F)c31)C2 [I′-142]	2.88	–
CS(=O)(=O)CC(=O)Nc1c2c(nn1CCCC(F)(F)F)C[C@@]1(CCc3cc(OCC(F)(F)F)ccc31)NC2=O [Compound I-212]	6.9	–
CS(=O)(=O)CC(=O)Nc1c2c(nn1-c1ccc(C#N)cn1)C[C@]1(CCc3cc(OCC(F)(F)F)ccc31)NC2=O [Compound I-190]	2.9	–
semaglutide [reference compound]	–	Rate of decrease in food consumption relative to control group (C57BL/6j mice (DIO mice); 1st week of administration, semaglutide study): 8.5%; Rate of decrease in food consumption relative to control group (C57BL/6j mice (DIO mice); 2nd week of administration, semaglutide study): 33.1%; Rate of decrease in food consumption relative to control group (C57BL/6j mice (DIO mice); 3rd week of administration, semaglutide study): 18.2%; Rate of decrease in food consumption relative to control group (C57BL/6j mice (DIO mice); 4th week of administration, semaglutide study): 10.9%; Rate of decrease in food consumption relative to control group (C57BL/6j mice (DIO mice); 5th week of administration, semaglutide study): 6.0%; Rate of decrease in body weight relative to control group (C57BL/6j mice (DIO mice); semaglutide study (FIG. 2)): 18.0%
Cc1ccc(-c2nn3c(c2NC(=O)CS(C)(=O)=O)C(=O)N[C@@]2(CCc4cc(OCC(F)(F)F)ccc42)C3)nc1 [I′-006]	2.25	–
Cc1ccc(-n2nc3c(c2NC(=O)CS(C)(=O)=O)C(=O)N[C@@]2(CCc4cc(OCCCC(F)(F)F)ccc42)C3)nn1 [II-103]	1.61	–
CS(=O)(=O)CC(=O)Nc1c(-c2ccc(F)c(F)c2)nn2c1C(=O)N[C@@]1(CCOc3cc(F)cc(F)c31)C2 [I′-126]	1.59	–
Cc1ccc(-n2nc3c(c2NC(=O)CS(C)(=O)=O)C(=O)N[C@@]2(CCOc4cc(OCC(F)(F)F)ccc42)C3)nc1 [Compound I-275]	2	–
CS(=O)(=O)CC(=O)Nc1c2c(nn1-c1ccc(C(F)F)cc1)C[C@]1(CCc3cc(OCC(F)(F)F)ccc31)NC2=O [II-174]	2.16	–
CS(=O)(=O)CC(=O)Nc1c2c(nn1-c1ccccc1)C[C@]1(CCc3cc(OCCCC(F)(F)F)ccc31)NC2=O [Compound I-034]	18	–
CCCCCCCCCCCCCCCC(=O)N[C@@H](CCC(=O)NCCCC[C@H](NC(=O)[C@H](C)NC(=O)[C@H](C)NC(=O)[C@H](CCC(N)=O)NC(=O)CNC(=O)[C@H](CCC(=O)O)NC(=O)[C@H](CC(C)C)NC(=O)[C@H](Cc1ccc(O)cc1)NC(=O)[C@H](CO)NC(=O)[C@H](CO)NC(=O)[C@@H](NC(=O)[C@H](CC(=O)O)NC(=O)[C@H](CO)NC(=O)[C@@H](NC(=O)[C@H](Cc1ccccc1)NC(=O)[C@@H](NC(=O)CNC(=O)[C@H](CCC(=O)O)NC(=O)[C@H](C)NC(=O)[C@@H](N)Cc1cnc[nH]1)[C@@H](C)O)[C@@H](C)O)C(C)C)C(=O)N[C@@H](CCC(=O)O)C(=O)N[C@@H](Cc1ccccc1)C(=O)N[C@H](C(=O)N[C@@H](C)C(=O)N[C@@H](Cc1c[nH]c2ccccc12)C(=O)N[C@@H](CC(C)C)C(=O)N[C@H](C(=O)N[C@@H](CCCNC(=N)N)C(=O)NCC(=O)N[C@@H](CCCNC(=N)N)C(=O)NCC(=O)O)C(C)C)[C@@H](C)CC)C(=O)O [Liraglutide, liraglutide, reference compound]	–	Rate of decrease in food consumption relative to control group (C57BL/6j mice (DIO mice); 1st week of administration, liraglutide study): 4.6%; Rate of decrease in food consumption relative to control group (C57BL/6j mice (DIO mice); 2nd week of administration, liraglutide study): 9.4%; Rate of decrease in food consumption relative to control group (C57BL/6j mice (DIO mice); 3rd week of administration, liraglutide study): 3.1%; Rate of decrease in food consumption relative to control group (C57BL/6j mice (DIO mice); 4th week of administration, liraglutide study): 2.4%; Rate of decrease in food consumption relative to control group (C57BL/6j mice (DIO mice); 5th week of administration, liraglutide study): 1.5%; Rate of decrease in body weight relative to control group (C57BL/6j mice (DIO mice); liraglutide study (FIG. 1)): 4.2%
CS(=O)(=O)CC(=O)Nc1c2c(nn1CCC1CC1)C[C@]1(CCc3cc(OCC(F)(F)F)ccc31)NC2=O [Compound I-008]	2.78	–
CS(=O)(=O)CC(=O)Nc1c(-c2ccc(Cl)cn2)nn2c1C(=O)N[C@@]1(CCOc3cc(F)cc(F)c31)C2 [I′-137]	1.53	–
CCS(=O)(=O)CC(=O)Nc1c(-c2ccc(F)cn2)nn2c1C(=O)N[C@@]1(CCc3cc(F)cc(F)c31)C2 [I′-123]	8.48	–

The next lines start with results.

IC50 (human MGAT2) [nM]	Compound	also measured
4.97	CCS(=O)(=O)CC(=O)Nc1c(-c2ccc(C)cn2)nn2c1C(=O)N[C@@]1(CCOc3cc(F)cc(F)c31)C2 [I′-136]	–
2.23	CS(=O)(=O)CC(=O)Nc1c(-c2ccc(C(F)F)cn2)nn2c1C(=O)N[C@@]1(CCOc3cc(F)cc(F)c31)C2 [I′-153]	–
1.97	Cc1ccc(-c2nn3c(c2NC(=O)CS(C)(=O)=O)C(=O)N[C@@]2(CCc4cc(OCC(F)(F)F)ccc42)C3)cc1 [I′-020]	–
6.42	CS(=O)(=O)CC(=O)Nc1c(-c2ccc(C3CC3)cn2)nn2c1C(=O)N[C@@]1(CCc3cc(F)cc(F)c31)C2 [I′-141]	–
1.14	CS(=O)(=O)CC(=O)Nc1c2c(nn1-c1ccc(F)c(F)c1)C[C@]1(CCOc3cc(CCC(F)(F)F)ccc31)NC2=O [II-225]	–
1.13	CS(=O)(=O)CC(=O)Nc1c(-c2ccc(F)cc2)nn2c1C(=O)N[C@]1(CCc3cc(OCC(F)(F)F)ccc31)C2 [I′-079]	–
2.9	CS(=O)(=O)CC(=O)Nc1c(-c2ccc(C(F)F)cc2)nn2c1C(=O)N[C@@]1(CCOc3cc(F)cc(F)c31)C2 [I′-145]	–
3.43	CS(=O)(=O)CC(=O)Nc1c(-c2ccc(C3CC3)cn2)nn2c1C(=O)N[C@@]1(CCOc3cc(F)cc(F)c31)C2 [I′-143]	–
1.88	Cc1ccc(-n2nc3c(c2NC(=O)CS(C)(=O)=O)C(=O)N[C@@]2(CCOc4cc(C5CC5)ccc42)C3)nc1 [II-168]	–
6.5	Cc1ccc(-c2nn3c(c2NC(=O)CS(C)(=O)=O)C(=O)N[C@@]2(CCOc4cc(F)cc(F)c42)C3)nc1 [I′-124]	–
0.22	Cc1cc(-n2nc3c(c2NC(=O)CS(C)(=O)=O)C(=O)N[C@@]2(CCOc4cc(OCCCC(F)(F)F)ccc42)C3)no1 [II-233]	–
1.17	CS(=O)(=O)CC(=O)Nc1c(CCC2CC2)nn2c1C(=O)N[C@@]1(CCc3cc(OCC(F)(F)F)ccc31)C2 [I′-046]	–
2.05	Cc1ccc(-n2nc3c(c2NC(=O)CS(C)(=O)=O)C(=O)N[C@@]2(CCOc4cc(OCC(C)(F)F)ccc42)C3)nc1 [II-151]	–
< 1	CS(=O)(=O)CC(=O)Nc1c2c(nn1-c1ccc(F)cn1)C[C@]1(CCOc3cc(OCC(F)(F)F)ccc31)NC2=O [II-295]	–
6.5	CS(=O)(=O)CC(=O)Nc1c2c(nn1-c1ccccn1)C[C@]1(CCc3cc(OCCCC(F)(F)F)ccc31)NC2=O [Compound I-023]	–
4.51	CS(=O)(=O)CC(=O)Nc1c(-c2ccc(F)c(F)c2)nn2c1C(=O)N[C@@]1(CCc3cc(F)cc(F)c31)C2 [I′-130]	–
3.5	CS(=O)(=O)CC(=O)Nc1c(-c2ccc(Cl)cn2)nn2c1C(=O)N[C@]1(CCc3cc(F)cc(F)c31)C2 [I′-147]	–
1.4	CS(=O)(=O)CC(=O)Nc1c2c(nn1CCCOC(F)(F)F)C[C@]1(CCc3cc(OCC(F)(F)F)ccc31)NC2=O [Compound I-253]	–
2.8	Cc1ccc(-n2nc3c(c2NC(=O)CS(C)(=O)=O)C(=O)N[C@@]2(CCc4cc(OCC(F)(F)F)ccc42)C3)nc1 [Compound I-236]	–
5.33	CS(=O)(=O)CC(=O)Nc1c(-c2ccc(Cl)cn2)nn2c1C(=O)N[C@]1(CCOc3cc(F)cc(F)c31)C2 [I′-151]	–
1.39	CCOc1ccc2c(c1)OCC[C@]21Cn2nc(-c3ccc(F)c(F)c3)c(NC(=O)CS(C)(=O)=O)c2C(=O)N1 [I′-133]	–
1.21	CS(=O)(=O)CC(=O)Nc1c2c(nn1CCCOC(F)(F)F)C[C@@]1(CCc3cc(OCC(F)(F)F)cc(F)c31)NC2=O [II-093]	–
